Tests used:
5-HT2A receptor = conditions: cited from earlier work
[1] = target: human serotonin 5-HT2A receptor (Homo sapiens, UniProt P28223); experiment: Radioligand competitive displacement binding, 5-HT2A
[2] = target: human serotonin 5-HT2B receptor (Homo sapiens, UniProt P41595); experiment: Radioligand competitive displacement binding, 5-HT2B
locomotor activity = conditions: administered alone; cited from earlier work

human serotonin 5-HT2A receptor, sequence (P28223 whole entry): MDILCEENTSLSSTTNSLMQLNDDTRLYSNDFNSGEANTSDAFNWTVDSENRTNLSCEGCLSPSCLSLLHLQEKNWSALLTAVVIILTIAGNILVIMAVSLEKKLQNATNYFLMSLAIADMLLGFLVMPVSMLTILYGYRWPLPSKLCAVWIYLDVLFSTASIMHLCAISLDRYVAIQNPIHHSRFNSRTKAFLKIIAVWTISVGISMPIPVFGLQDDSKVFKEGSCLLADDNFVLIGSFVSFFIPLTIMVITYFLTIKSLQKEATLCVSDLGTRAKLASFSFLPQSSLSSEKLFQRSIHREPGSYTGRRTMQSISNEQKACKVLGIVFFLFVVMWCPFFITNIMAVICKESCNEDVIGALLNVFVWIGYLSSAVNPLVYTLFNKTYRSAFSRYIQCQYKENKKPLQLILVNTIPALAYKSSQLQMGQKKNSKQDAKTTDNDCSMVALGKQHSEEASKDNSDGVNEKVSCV
human serotonin 5-HT2B receptor, sequence (P41595 whole entry): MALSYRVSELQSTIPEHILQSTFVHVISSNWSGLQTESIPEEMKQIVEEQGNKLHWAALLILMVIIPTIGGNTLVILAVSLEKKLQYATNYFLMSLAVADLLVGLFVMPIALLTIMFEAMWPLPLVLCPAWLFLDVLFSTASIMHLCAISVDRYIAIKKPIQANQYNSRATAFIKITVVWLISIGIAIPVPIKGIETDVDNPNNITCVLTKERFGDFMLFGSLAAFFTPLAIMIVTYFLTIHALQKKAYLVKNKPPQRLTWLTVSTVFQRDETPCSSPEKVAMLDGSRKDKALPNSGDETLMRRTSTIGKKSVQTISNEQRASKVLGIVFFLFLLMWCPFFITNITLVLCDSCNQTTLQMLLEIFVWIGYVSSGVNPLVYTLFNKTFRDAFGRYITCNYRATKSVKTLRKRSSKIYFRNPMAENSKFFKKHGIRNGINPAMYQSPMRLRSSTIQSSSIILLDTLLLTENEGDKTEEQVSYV

With CN(C)[C@@H]1Cc2ccccc2[C@@H](c2ccccc2)C1 (relative stereo) [(−)-trans-PAT, (2S, 4R)-(−)-trans-4-phenyl-N,N-dimethyl-1,2,3,4-tetrahydronaphthalen-2-amine] as the molecule, how does the “functional activity at 5-HT2A receptors” value (5-HT2A receptor) read?
The value was “inverse agonist (and competitive antagonist) activity”.

What does the source list for CN(C)[C@@H]1Cc2ccccc2[C@@H](c2ccccc2)C1 [(+)-trans-PAT, trans-4-phenyl-N,N-dimethyl-1,2,3,4-tetrahydronaphthalen-2-amine]?
Ki [1]: 470 nM; Ki [2]: 240 nM

For CN1CCN(C2=Nc3cc(Cl)ccc3Nc3ccccc32)CC1 [clozapine], which “effect on locomotor activity” value (locomotor activity) is on record?
The value was “suppressed locomotor activity”.
